Measured values from patent US12509424B2, “Compound and composition as PDGF receptor kinase inhibitor” (NIPPON SHINYAKU CO., LTD., priority 2019, dated 2025).
Read-outs that look alike come from different tables or passages of the source.

Assays:
PDGFR-β = PDGFR-β (Homo sapiens (Human), UniProt P09619); experiment: PDGFR-β tyrosine kinase inhibitory action (HTRF KinEASE-TK); type: biochemical; details: PDGFR-β enzyme 1 ng/μL, 30° C. for 30 minutes; read-out: PDGF-β IC50
Procedure: (§1) 1. Preparation of Test Substance
This DMSO solution was diluted by 8 times with an assay buffer 1 (50 mM HEPES (pH 7.0), 0.02% NaN3, 0.01% Bovine Serum Albumin, 0.1 mM orthovanadate, 1 mM Dithiothreitol, 5 mM MgCl2, and 1 mM MnCl2) and further diluted by 5 times with an assay buffer 2 (50 mM HEPES (pH 7.0), 0.02% NaN3, 0.01% Bovine Serum Albumin, 0.1 mM orthovanadate, 1 mM Dithiothreitol, 5 mM MgCl2, 1 mM MnCl2, and 40 nM Supplemented Enzymatic Buffer (cisbio)).
2. Measurement of PDGFR-β Tyrosine Kinase Inhibitory Action
For the measurement, the HTRF KinEASE-TK kit from Cisbio Bioassays SAS was used. To a 384 well plate, the test substance solution was added at 4 μL each, then 2 μL of a PDGFR-β enzyme solution (final concentration of 1 ng/μL, Carna Biosciences, Inc.) and 4 μL of a substrate solution obtained by adding 0.6 μM ATP to TK substrate-3-biotin (cisbio) were added, and the solution was allowed to react at 30° C. for 30 minutes at a final concentration of the test substance being 0.01 to 10,000 nM.
Thereafter, 10 μL of a detection solution (cisbio) was added to each well and allowed to react at 30° C. for 1 hour. The fluorescence intensity was measured with a microplate reader (Spectra Max M5, Molecular device).
(§2) 3. Analysis of Measurement Results

[1] = tested on: pulmonary arterial smooth muscle cells; experiment: Suppression of proliferation of pulmonary arterial smooth muscle cells (PDGF-BB stimulation, BrdU); type: cell-based; details: healthy human derived pulmonary arterial smooth muscle cells, human PDGF-BB 10 ng/mL stimulation, BrdU uptake after 1 day, test substance final concentration 3 to 10,000 nM, read-out: Human normal PASMC proliferation suppression (PDGF stimulation_IC50)
Procedure: as §1
Furthermore, it was diluted by 50 times with distilled water.
2. Measurement of Suppression Action Against Proliferation of Pulmonary Arterial Smooth Muscle Cells
The day after healthy human derived pulmonary arterial smooth muscle cells were seeded onto a 96 well plate using a smooth muscle cell proliferation medium, the proliferation medium was replaced with a 0.1% FBS medium, and the cells were cultured for an additional day. A test substance solution was diluted by 10 times with a medium containing BrdU and human PDGF-BB (final concentration of 10 ng/mL, Sigma-Aldrich) and added to cells in equal amounts so as to reach a final concentration of 3 to 10,000 nM. Also, to the human PDGF-BB negative control, BrdU and 0.1% DMSO solution were added. After culturing for 1 day, the amount of BrdU taken up by the proliferating cells was measured using an anti-BrdU antibody.
as §2

Chain of PDGFR-β (P09619 33-1106): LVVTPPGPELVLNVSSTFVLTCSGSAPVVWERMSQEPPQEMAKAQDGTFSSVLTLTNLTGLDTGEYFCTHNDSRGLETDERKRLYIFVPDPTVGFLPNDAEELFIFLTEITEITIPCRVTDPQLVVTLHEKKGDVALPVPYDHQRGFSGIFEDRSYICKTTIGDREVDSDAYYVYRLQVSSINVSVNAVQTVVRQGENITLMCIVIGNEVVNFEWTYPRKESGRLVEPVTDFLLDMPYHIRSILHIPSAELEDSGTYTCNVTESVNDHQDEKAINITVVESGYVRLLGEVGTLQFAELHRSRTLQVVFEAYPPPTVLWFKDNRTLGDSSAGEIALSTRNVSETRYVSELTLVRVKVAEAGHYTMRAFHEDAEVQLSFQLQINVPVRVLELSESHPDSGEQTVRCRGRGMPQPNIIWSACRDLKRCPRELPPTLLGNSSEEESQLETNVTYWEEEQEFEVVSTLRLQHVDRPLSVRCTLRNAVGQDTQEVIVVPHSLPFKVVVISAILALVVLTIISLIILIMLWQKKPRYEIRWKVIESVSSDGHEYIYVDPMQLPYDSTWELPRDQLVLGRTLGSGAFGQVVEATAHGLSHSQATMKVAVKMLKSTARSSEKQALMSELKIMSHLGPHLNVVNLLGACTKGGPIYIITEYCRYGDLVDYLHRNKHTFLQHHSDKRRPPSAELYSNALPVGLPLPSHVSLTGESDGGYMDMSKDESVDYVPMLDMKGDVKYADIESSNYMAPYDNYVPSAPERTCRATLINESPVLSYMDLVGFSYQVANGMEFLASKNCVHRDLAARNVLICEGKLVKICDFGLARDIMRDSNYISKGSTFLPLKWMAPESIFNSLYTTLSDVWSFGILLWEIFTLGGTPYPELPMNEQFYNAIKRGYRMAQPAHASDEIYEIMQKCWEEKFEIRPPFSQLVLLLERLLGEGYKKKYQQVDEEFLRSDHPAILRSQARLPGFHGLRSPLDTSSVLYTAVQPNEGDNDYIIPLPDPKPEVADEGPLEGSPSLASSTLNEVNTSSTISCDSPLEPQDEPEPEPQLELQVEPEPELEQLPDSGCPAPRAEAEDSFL

SMILES	IC50 (PDGFR-β)	IC50 ([1]; PASMC, 24 h)	IC50 [1]
Cc1ccc(C(=O)N[C@H]2CCCC[C@@H]2O)cc1NCc1cnc(N[C@H]2CCOC2)nc1 [Example 136, N-[(1S,2S)-2-hydroxycyclohexyl]-4-methyl-3-{[(2-{[(3S)-oxolan-3-yl]amino}pyrimidin-5-yl)methyl]amino}benzamide]	32 nM	150 nM	
Cc1ccc(C(=O)N[C@H]2CCCC[C@@H]2O)cc1NCc1ccc(NC(=O)C2CCOCC2)nc1 [Example 137, N-{5-[(5-{[(1S,2S)-2-hydroxycyclohexyl]carbamoyl}-2-methylanilino)methyl]pyridin-2-yl}oxane-4-carboxamide]	41 nM	60 nM	
COC1CC(C(=O)Nc2ccc(CNc3cc(C(=O)N[C@H]4CCCC[C@@H]4O)ccc3C)cn2)C1 (stereo partly drawn) [Example 138, N-[(1S,2S)-2-hydroxycyclohexyl]-3-{[(6-{[(1r,3r)-3-methoxycyclobutane-1-carbonyl]amino}pyridin-3-yl)methyl]amino}-4-methylbenzamide]	16 nM		51 nM
Cc1ccc(C(=O)N[C@H]2CCCC[C@@H]2O)cc1NCc1ccc(NC(=O)C2CCOC2)nc1 (stereo partly drawn) [Example 139, N-{5-[(5-{[(1S,2S)-2-hydroxycyclohexyl]carbamoyl}-2-methylanilino)methyl]pyridin-2-yl}oxolane-3-carboxamide]	30 nM	100 nM	
Cc1ccc(C(=O)N[C@H]2CCCC[C@@H]2O)cc1NCc1ccc(-n2ccnn2)nc1 [Example 140, N-[(1S,2S)-2-hydroxycyclohexyl]-4-methyl-3-({[6-(1H-1,2,3-triazol-1-yl)pyridin-3-yl]methyl}amino)benzamide]	330 nM	43 nM	
Cc1ccc(C(=O)N[C@H]2CCCC[C@@H]2O)cc1NCc1ccc(NC2COC2)nc1 [Example 141, N-[(1S,2S)-2-hydroxycyclohexyl]-4-methyl-3-[({6-[(oxetan-3-yl)amino]pyridin-3-yl}methyl)amino]benzamide]	69 nM	190 nM	
Nc1ncc(CNc2cc(C(=O)N[C@H]3CCCC[C@@H]3O)ccc2Cl)cn1 [Example 142, 3-{[(2-aminopyrimidin-5-yl)methyl]amino}-4-chloro-N-[(1S,2S)-2-hydroxycyclohexyl]benzamide]	210 nM	130 nM	
Cc1c(F)cc(C(=O)N[C@H]2CCCC[C@@H]2O)cc1NCc1cnc(N)nc1 [Example 143, 3-{[(2-aminopyrimidin-5-yl)methyl]amino}-5-fluoro-N-[(1S,2S)-2-hydroxycyclohexyl]-4-methylbenzamide]	97 nM	90 nM	
Cc1ccc(C(=O)N[C@H]2CCCC[C@@H]2O)cc1NCc1cnc2c(c1)OCCN2 [Example 144, 3-{[(3,4-dihydro-2H-pyrido[3,2-b][1,4]oxazin-7-yl)methyl]amino}-N-[(1S,2S)-2-hydroxycyclohexyl]-4-methylbenzamide]	65 nM	39 nM	
Cc1ccc(C(=O)N[C@H]2CCCC[C@@H]2O)cc1NCc1cncc(-n2nccn2)c1 [Example 145, N-[(1S,2S)-2-hydroxycyclohexyl]-4-methyl-3-({[5-(2H-1,2,3-triazol-2-yl)pyridin-3-yl]methyl}amino)benzamide]	100 nM	47 nM	
O=C(N[C@H]1CCCC[C@@H]1O)c1cccc(CNc2cncc(-c3ncccn3)c2)c1 [Example 150, N-[(1S,2S)-2-hydroxycyclohexyl]-3-({[5-(pyrimidin-2-yl)pyridin-3-yl]amino}methyl)benzamide]	360 nM	300 nM	
O=C(N[C@H]1CCCC[C@@H]1O)c1ccc(F)c(CNc2cncc(-c3ncccn3)c2)c1 [Example 151, 4-fluoro-N-[(1S,2S)-2-hydroxycyclohexyl]-3-({[5-(pyrimidin-2-yl)pyridin-3-yl]amino}methyl)benzamide]	170 nM	250 nM	
Cc1ncc(C(=O)N[C@H]2CCCC[C@@H]2O)cc1CNc1cncc(C#CC2CC2)c1 [Example 157, 5-({[5-(cyclopropylethynyl)pyridin-3-yl]amino}methyl)-N-[(1S,2S)-2-hydroxycyclohexyl]-6-methylpyridine-3-carboxamide]	180 nM	52 nM	
O=C(N[C@H]1CCCC[C@@H]1O)c1ccc(Cl)c(OCc2cncc(-c3ncccn3)c2)c1 [Example 167, 4-chloro-N-[(1S,2S)-2-hydroxycyclohexyl]-3-{[5-(pyrimidin-2-yl)pyridin-3-yl]methoxy}benzamide]	210 nM	210 nM	
O=C(N[C@H]1CCCC[C@@H]1O)c1ccc(Cl)c(COc2cncc(-c3ncccn3)c2)c1 [Example 170, 4-chloro-N-[(1S,2S)-2-hydroxycyclohexyl]-3-({[5-(pyrimidin-2-yl)pyridin-3-yl]oxy}methyl)benzamide]	200 nM	130 nM	
O=C(N[C@H]1CCCC[C@@H]1O)c1ccc(F)c(/C=C(\F)c2cncc(-c3ccccn3)c2)c1 [Example 177, 3-[(Z)-2-([2,3′-bipyridin]-5′-yl)-2-fluoroethenyl]-4-fluoro-N-[(1S,2S)-2-hydroxycyclohexyl]benzamide]	15 nM	11 nM	
O=C(N[C@H]1CCCC[C@@H]1O)c1ccc(F)c(/C=C(\F)c2cncc(-c3ncccn3)c2)c1 [Example 178, 4-fluoro-3-{(Z)-2-fluoro-2-[5-(pyrimidin-2-yl)pyridin-3-yl]ethenyl}-N-[(1S,2S)-2-hydroxycyclohexyl]benzamide]	26 nM	44 nM	
Cc1ccc(C(=O)N[C@H]2CCCC[C@@H]2O)cc1/C=C(\F)c1cnc2cccnn12 [Example 179, 3-[(Z)-2-fluoro-2-(imidazo[1,2-b]pyridazin-3-yl)ethenyl]-N-[(1S,2S)-2-hydroxycyclohexyl]-4-methylbenzamide]	5.9 nM	20 nM	
Cc1ncc(C(=O)N[C@H]2CCCC[C@@H]2O)cc1/C=C(\F)c1cncc(-c2ccccn2)c1 [Example 180, 5-[(Z)-2-([2,3′-bipyridin]-5′-yl)-2-fluoroethenyl]-N-[(1S,2S)-2-hydroxycyclohexyl]-6-methylpyridine-3-carboxamide]	16 nM	32 nM	
Cc1ccc(C(=O)N[C@H]2CCCC[C@@H]2O)cc1/C=C(\F)c1cncc(CN2CCN(C)CC2)c1 [Example 181, 3-[(Z)-2-fluoro-2-{5-[(4-methylpiperazin-1-yl)methyl]pyridin-3-yl}ethenyl]-N-[(1S,2S)-2-hydroxycyclohexyl]-4-methylbenzamide]	100 nM	500 nM	
Cc1ccc(C(=O)N[C@H]2CCCC[C@@H]2O)cc1/C=C(\F)c1cncc(CN2CCOCC2)c1 [Example 182, 3-[(Z)-2-fluoro-2-{5-[(morpholin-4-yl)methyl]pyridin-3-yl}ethenyl]-N-[(1S,2S)-2-hydroxycyclohexyl]-4-methylbenzamide]	33 nM	190 nM	
Cc1ccc(C(=O)N[C@H]2CCCC[C@@H]2O)cc1/C=C(\F)c1ccc(NCC2CC2)nc1 [Example 183, 3-[(Z)-2-{6-[(cyclopropylmethyl)amino]pyridin-3-yl}-2-fluoroethenyl]-N-[(1S,2S)-2-hydroxycyclohexyl]-4-methylbenzamide]	30 nM	24 nM	
O=C(N[C@H]1CCCC[C@@H]1O)c1ccc(F)c(/C=C(\F)c2cncc(N3CCOCC3)c2)c1 [Example 184, 4-fluoro-3-{(Z)-2-fluoro-2-[5-(morpholin-4-yl)pyridin-3-yl]ethenyl}-N-[(1S,2S)-2-hydroxycyclohexyl]benzamide]	51 nM	82 nM	
